Experimental findings from patent publication US10881611B2, “Extracellular vesicles derived from osteoblastic lineage cells for therapeutic and diagnostic use” (Fondazione Città Della Speranza—Onlus, priority 2015, dated 2021) are described below.

One test concerns mature osteoclasts. Description: Mature osteoclasts treated for 48 hours, TRAcP colouring. The format is cell-based, mouse. The source says:
Primary mouse osteoclasts are obtained by medullar macrophages differentiation isolated from CD1 long bones of age comprised within 7-10 days. The litter is kept and maintained according to the legal requirements, under the supervision of a veterinary responsible. When experimentally needed, the animals are sacrificed according to the laws and the long bones are explanted and cleaned from soft tissues. The bones are then submitted to mechanical disruption in order to free the bone marrow. The cells obtained are diluted in PBS and stratified 1:1 on Histopaque (Sigma-Aldrich), and centrifuged for 30′ at 450 g. The formed buffy coat is collected and washed with PBS. […] The osteoclastic phenotype is routinely assessed by biochemical assay to tartarate resistant acidic phosphatase positivity on a cell aliquot fixed in PFA/PBS (4% v/v). […]
The sensitivity of mature osteoclasts to the antitumor medicament doxorubicin has been evaluated by treating the cells with different doxorubicin concentrations (0.1-0.2-0.5-1-2-4 μM) and carrying out TRAcP colouring after fixing. […]
The sensitivity of mature osteoclasts to the medicament zolendronate has been assessed by treating the cells with different zolendronate concentrations (10^−8, 5×10^−8, 10^−7, 5×10^−7, 10^−6, 5×10^−6, 10^−5, 5×10^−5, 10^−4 M) and carrying out TRAcP colouring after fixing. […]

In test [1] the test system is human osteosarcoma cell lines. Description: Cell viability assay (MTT) of human osteosarcoma cell lines. The format is cell-based. How it is done: Osteosarcoma cell lines sensitivity to anti-tumour drug Doxorubicin was evaluated by treating the cells with different Doxorubicin concentrations and carrying out cell viability assay with MTT at different times.
RANKL+ O-EVs were incubated with Doxorubicin (300 mg/ml) in vitro, then subjected to FACS. RANKL+ O-EV-associated doxorubicin confers red fluorescence to the nanoparticles, enabling FACS isolation thereof (FIG. 11).
Human osteosarcoma cell lines were treated with free Doxorubicin (235 ng, corresponding to a concentration of 1 micromole/litre in the medium) or with RANKL+ O-EV-associated Doxorubicin (100,000 FACS-isolated nanoparticles, containing 3.2 ng of Doxorubicin, corresponding to a concentration of 10 nanomole/litre in the medium). […] However, the treatment with anti-tumour drug-loaded RANKL+ O-EVs allowed to obtain this effect with a Doxorubicin dose 100-fold lower than the free drug (Table 1 below).

Another test deals with primary osteoblasts. Description: FACS evaluation of the RANKL-positive O-EV fraction released by osteoblasts under parathyroid hormone stimulation. Type of test: cell-based, murine. Conditions: osteoblasts subjected to parathyroid hormone stimulation (10^−8 M human recombinant), p=0.037; without stimulation 53.06+3.47%. As to the method:
Murine osteoblasts, obtained as previously described, are plated in 150 cm^2 culture flasks and grown in DMEM culture medium containing glutamine (5 mM), penicillin (1 mg/ml), streptomycin (2 mg/ml) and American fetal bovine serum (10% v/v) (FBS), and kept in incubator under 5% CO2. Upon reaching 70% confluence, cells were abundantly washed with PBS (3 times) to remove serum residues, and kept 24 hours in glutamine (5 mM)/penicillin (1 mg/ml), streptomycin (2 mg/ml) DMEM medium. […]
At the end of the procedure, the pellet obtained is resuspended in […] PBS and incubated with 10 microM CMFDA, at 37° C. for 30 min. The pellet is then brought to maximum volume with PBS in ultra-centrifuge tube, centrifuged at 30,000 RPM for 70 minutes at 4° C., and evaluated for quantity and quality by cytofluorimetric analysis. […]
FACScanto II (BD Biosciences) was resorted to for cytofluorimetric analysis. […] Moreover, the prescribed fluorescence channel compensations are carried out. […]
For evaluation of RANKL expression, CMFDA positive RANKL+ O-EV pellet is incubated for 30 min with mouse anti-RANKL antibody conjugated with Phycoerythrin (PE) (1:100) in PBS/BSA (1%). RANKL+ O-EVs are then FACS analysed and CMFDA/PE double-positive fraction is isolated for further evaluations. […]

The mark [2] stands for this setting: human osteosarcoma cell lines, Table 1.

Where only a bound is given, the exact number is not on record here.

On to `O=P(O)(O)C(O)(Cn1ccnc1)P(=O)(O)O` [zolendronate], for which the “zolendronate concentration above which toxicity on mature osteoclasts is shown” value with mature osteoclasts (10^−8 to 10^−4 M tested) is listed as “higher than 10^−7 M”.

Regarding `COc1cccc2c1C(=O)c1c(O)c3c(c(O)c1C2=O)C[C@@](O)(C(=O)CO)C[C@@H]3O[C@H]1C[C@H](N)[C@H](O)[C@H](C)O1` [Doxorubicin], in test [1] (MTT at different times, osteosarcoma cell lines), the “Doxorubicin concentration at which toxicity on tumour cells manifests” value is more than 1 µmol/L. Besides, the “death of the neoplastic cells” value in test [1] (free Doxorubicin 235 ng, 1 micromole/litre in the medium) was “about 80%”. Moreover, in test [1] (setting [2]), the “Doxorubicin amount giving death of about 80% of the neoplastic cells” value stood at 235 ng and the “Doxorubicin concentration in the medium giving death of about 80% of the neoplastic cells” value was 1 µM. In addition, the “doxorubicin concentration above which toxicity on mature osteoclasts shows” value in the test with mature osteoclasts (0.1-4 μM tested) is “higher than 0.2 micromolar”.

B1: parathyroid hormone: human recombinant parathyroid hormone used at 10^−8 M to stimulate osteoblasts (protein, UniProt P01270 32-115, looked up)
Parathyroid hormone: SVSEIQLMHNLGKHLNSMERVEWLRKKLQDVHNFVALGAPLAPRDAGSQRPRKKEDNVLVESHEKSLGEADKADVNVLTKAKSQ
modifications: Parathyroid hormone
notes: human recombinant parathyroid hormone used at 10^−8 M to stimulate osteoblasts
As to B1, the “RANKL-positive O-EV subpopulation” value in the test with primary osteoblasts was found to be 63.6±4.20%.
